Key:
[1] = tested on: rat paw edema evoked by egg white; test: Egg white induced paw edema test in rats; type: in vivo; conditions: 8 mg/kg
Method: (§1) The anti-inflammatory effects of above extracts of the present invention were investigated in acute inflammatory models induced by either carrageenan or egg white.
(§2) Rats received a subplantar injection of carrageenan (0.1 ml of a 1% suspension in 0.85% saline; Sigma Chemical Co., St Louis, Mo., USA) or egg white (0.1 ml of a 10% solution in 0.85% saline) in the left hind paw. The total volume injected was 0.1 ml.
(§3) Indomethacin was administered to animals in the positive control group.
(§4) The volume of paw edema (in ml) was measured in each animal using a plethysmometer (Plethysmometer 7150, Ugo Basile, Italy) to a precision of two decimal places. The measurements were made immediately before and 2, 4, 6, 24 h after the carrageenan injection or 1, 2, 3, and 4 h after the injection of egg white. The swelling rate of paw was the percentage difference in paw volume and calculated by the following equation: Swelling rate (%)=(A−B)×100/B, where A represents the paw volume at different time points after injection, and B represents the paw volume before injection.
(§5) Values are presented as mean±SD.

[2] = tested on: rat paw edema evoked by carrageenan; test: Carrageenan induced paw edema test in rats; type: in vivo; conditions: 10 mg/kg
Method: as §1, §2, §3, §4, §5

[3] = tested on: writhing activity of mice induced by acetic acid; test: Acetic acid writhing test in mice; type: in vivo, ICR mice; conditions: one hour after administration; for The number of writhing episodes: mice
Method: In the writhing test, acetic acid is injected into the intraperitoneal cavity of mice. This induces acute inflammatory pain characterized by a contraction wave of abdominal musculature through stretching of the hind limbs that is called writhing, and the number of writhing episodes is evaluated.
Male and female ICR mice weighing 18 g to 25 g were fasted for one day before the test. […] The animals were then placed in individual 101×15 cm Plexiglas observation chambers for a 10-min acclimatization period. Acetic acid, 0.8% in 0.85% saline was injected i.p. into each mouse the animals were then returned into their respective transparent chambers.
The animals were then observed for a specific period (15 or 20 mins) and the number of writhing episodes was counted. For scoring purpose, a writhe was indicated by a contraction wave of abdominal musculature with simultaneous stretching of at least one hind limb.
as §5

C[C@@H]1C[C@H]2[C@@H]3CCC4=CC(=O)C=C[C@]4(C)[C@@]3(F)[C@@H](O)C[C@]2(C)[C@@]1(O)C(=O)CO [Dexamethasone]
Swelling percentage of paw volume after stimulation (%) 1 hr ([1]; 1 hr): 26.66 ± 3.34 % | Swelling percentage of paw volume after stimulation (%) 2 hr ([1]; 2 hr): 19.31 ± 5.83 % | Swelling percentage of paw volume after stimulation (%) 3 hr ([1]; 3 hr): 9.12 ± 4.42 % | Swelling percentage of paw volume after stimulation (%) 4 hr ([1]; 4 hr): 7.49 ± 4.08%

COc1ccc2c(c1)c(CC(=O)O)c(C)n2C(=O)c1ccc(Cl)cc1 [Indomethacin]
inhibition of swelling evoked by carrageenan (in words) ([2]; positive control, not observed at 24 hrs after stimulation): inhibited the swelling within 7 hrs after drug administration | Percentage change in swelling after injecting carrageenan (%) 2 hour ([2]; rat, 2 hour): 12.27 ± 4.61 % | Percentage change in swelling after injection of carrageenan (%) 2 hour ([2]; rat, 2 hour (Table 13)): 12.27 ± 4.61 % | Percentage change in swelling after injecting carrageenan (%) 4 hour ([2]; rat, 4 hour): 15.12 ± 7.85 % | Percentage change in swelling after injection of carrageenan (%) 4 hour ([2]; rat, 4 hour (Table 13)): 15.12 ± 7.85 % | Percentage change in swelling after injecting carrageenan (%) 6 hour ([2]; rat, 6 hour): 15.32 ± 7.84 % | Percentage change in swelling after injection of carrageenan (%) 6 hour ([2]; rat, 6 hour (Table 13)): 15.32 ± 7.84 % | Percentage change in swelling after injecting carrageenan (%) 24 hour ([2]; rat, 24 hour): 35.36 ± 14.65% | Percentage change in swelling after injection of carrageenan (%) 24 hour ([2]; rat, 24 hour (Table 13)): 35.36 ± 14.65%

COC1=C[C@@H]2[C@@H]3Cc4ccc(OC)c(O)c4[C@]2(CCN3C)CC1=O [Sinomenine]
The number of writhing episodes ([3]; 0.0375 g/kg): 25 ± 9 | inhibition to the writhing activity of mice induced by acetic acid (in words) ([3]; tetrahydropalmatine 0.09 g/kg, sinomenine 0.0375 g/kg, capsule 12.7 g/kg and 25.50 g/kg): significant compared to control group

COc1cc2c(cc1OC)[C@@H]1Cc3ccc(OC)c(OC)c3CN1CC2 [Tetrahydropalmatine]
The number of writhing episodes ([3]; 0.090 g/kg): 11 ± 6

From patent US20060110468A1, “Herbal formulations for arthritis” (priority 2004, published 2006)
